Columns and labels:
[1] = system: replication-defective NL4-3 virus pseudotyped with HIV-1ADA envelope; format: cell-based; details: for Entry of R5-pseudotyped virus: MT2-CCR5 cells treated with 10 μM compound, 48 h, FIG. 6A, 7B
[2] = system: HIV-1 LTR-driven promoter; assay: LTR-driven gene expression; details: for Reversal of lovastatin-induced increase in LTR-driven transcription: supplementation with lovastatin
Description: LTR-driven gene expression. Jurkat cells transfected with pLTR-luc (Schwartz, O. et al (1990) Gene 88:197-205), pcDNA-tat and the promoterless renilla luciferase plasmid were treated at 4 h post-transfection with inhibitors and metabolites at the indicated concentrations (see HIV-1. infections section). Relative luciferase units (RLU) were calculated as the ratio between firefly and renilla activity after 48 h.

Rho = Rho activation assay; format: cell-based; details: FIG. 8C
Description: Rho and Rac activation assay. […] At times indicated, cells were washed with ice-cold PBS and lysates prepared using Rho or Rac activation assay kits (Upstate Biotechnology). GTP-bound Rho was precipitated with RBD-agarose beads and GTP-Rac with PBD-agarose beads. Activated Rho or Rac were measured in pellets by Western blot with specific antibodies, using crude cell extracts for normalization. Densitometry was performed using NIH Image software.

[3] = system: replication-defective NL4-3 virus pseudotyped with VSV envelope; format: cell-based, vesicular stomatitis virus
[4] = system: gp120 with the HIV-1 receptors CD4 and CXCR4; assay: gp120-induced patching; details: for Restoration of patch size and gp120-CXCR4 co-localization in lovastatin-treated cells: addition to lovastatin-treated cells
[5] = system: HIV-1-pseudotyped virus produced by HEK 293T cells; format: cell-based
X4 (NL4-3) HIV-1 strain = assay: HIV-1 infection of PHA-activated human PBMC, p24 antigen, X4 strain; format: cell-based
Description: (§1) Treated PBMC were incubated with NL4-3 or BaL viral stocks (1 or 10 ng p24 antigen/10^6 cells; 3 h, 37° C.). Cell-free supernatants were collected daily from cultured cells (0.5×10^6/ml) and tested for p24 antigen (Coulter).

R5 (BaL) HIV-1 strain = assay: HIV-1 infection of PHA-activated human PBMC, p24 antigen, R5 strain; format: cell-based
Description: as §1

grafted human PBMC = details: mouse, in vivo
[6] = system: X4-pseudotyped replication-defective HIV-1 NL4-3 variant; format: cell-based; details: 10 μM lovastatin; not shown
[7] = system: VSV-G-pseudotyped virus produced by HEK 293T cells; format: cell-based, vesicular stomatitis virus
MT2-CCR5 cells = assay: Cell cholesterol mass determination; details: lovastatin-treated MT2-CCR5 cells; FIG. 7C
HIV-1 = assay: Lovastatin treatment of HIV-1-infected patients; format: in vivo, human; details: Table I
HIV-1 NL4-3 = assay: Murine SCID-hu-PBMC model of HIV-1 infection; format: in vivo, CB.17 SCID/SCID mice
Luc-Ada viral particles = assay: Production of Luc-Ada viral particles in cells expressing raft-targeted protease peptide; details: cells expressing the peptide; FIG. 8B as printed
Gag = details: cells expressing the peptide
[8] = lovastatin-treated PBMC, FIG. 8A

Compound: CC(C)=CCC/C(C)=C/CC/C(C)=C/CC/C(C)=C/COP(=O)(O)OP(=O)(O)O [GGPP, geranylgeranylpyrophosphate]
- Reversal of lovastatin-induced inhibition of HIV-1 entry [1]: reversed
- Reversal of lovastatin-induced increase in LTR-driven transcription ([2]; MT2-CCR5 cells, FIG. 7D): reversed
- Reversal of lovastatin inhibition of HIV-1-induced Rho activation (Rho; co-incubation with lovastatin): reversed

Compound: CC(C)=CCC/C(C)=C/CC/C(C)=C/COP(=O)(O)OP(=O)(O)O [FPP, famesylpyrophosphate]
- Reversal of lovastatin-induced inhibition of HIV-1 entry [1]: not
- Reversal of lovastatin-induced increase in LTR-driven transcription ([2]; MT2-CCR5 cells, FIG. 7D): not

Compound: COC(=O)[C@H](CCSC)NC(=O)c1ccc(NC[C@@H](N)CS)cc1-c1ccccc1 [farnesyl transferase inhibitor]
- Entry of R5-pseudotyped virus [1]: not
- Entry of VSV-pseudotyped virus [3]: did not affect

Compound: CC(C)CCC[C@@H](C)[C@H]1CC[C@H]2[C@@H]3CC=C4C[C@@H](O)CC[C@]4(C)[C@H]3CC[C@]12C [cholesterol]
- Reversal of lovastatin-induced inhibition of HIV-1 entry [1]: not
- Reversal of lovastatin-induced increase in LTR-driven transcription ([2]; MT2-CCR5 cells, FIG. 7D): not
- Restoration of patch size and gp120-CXCR4 co-localization in lovastatin-treated cells ([4]; FIG. 8A): not

Compound: COC(=O)[C@H](CC(C)C)NC(=O)c1ccc(NC[C@@H](N)CS)cc1-c1ccccc1 [geranylgeranyl transferase inhibitor]
- Entry of R5-pseudotyped virus [1]: inhibited
- HIV transcription (LTR-driven) ([2]; MT2-CCR5 cells, FIG. 7D): increased
- Entry of VSV-pseudotyped virus [3]: did not affect

Compound: L-mevalonate
- Reversal of lovastatin-induced inhibition of HIV-1 entry [1]: reversed
- Reversal of lovastatin-induced reduction of viral production ([5]; co-incubation with lovastatin, FIG. 6B): reversed
- Reversal of lovastatin-induced increase in LTR-driven promoter activity ([2]; Jurkat cells, co-incubation with lovastatin, FIG. 6C): reversed
- Reversal of lovastatin effect on p24 production (X4 (NL4-3) HIV-1 strain; co-incubation with lovastatin, X4-infected cultures): reversed
- Restoration of patch size and gp120-CXCR4 co-localization in lovastatin-treated cells ([4]; FIG. 8A): restored
- Reversal of lovastatin effect on p24 production (R5 (BaL) HIV-1 strain; co-incubation with lovastatin, R5-infected cultures): reversed

Compound: CC[C@H](C)C(=O)O[C@H]1C[C@@H](C)C=C2C=C[C@H](C)[C@H](CC[C@@H]3C[C@@H](O)CC(=O)O3)[C@H]21 [lovastatin]
- Number of labeled cells or labeling intensity (grafted human PBMC): No difference
- Entry of R5-pseudotyped virus [1]: inhibited entry
- Entry of X4-pseudotyped virus [6]: inhibited entry
- VSV-G-pseudotyped viral production [7]: not that of VSV-G-pseudotyped viruses
- HIV-1-pseudotyped viral production [5]: reduced
- HIV-1 LTR-driven promoter activity ([2]; Jurkat cells, FIG. 6C): increased
- Cholesteryl ester mass (MT2-CCR5 cells): drastically reduced
- Free cholesterol levels vs untreated cells (MT2-CCR5 cells): comparable
- HIV-1-induced Rho activation (Rho; MT2-CCR5 cells incubated with lovastatin prior to virus exposure): inhibited
- HIV-1 replication (p24 antigen production) (X4 (NL4-3) HIV-1 strain; PBMC pretreated 48 h with 10 μM lovastatin, X4 (NL4-3)-infected cultures, FIG. 5A): reduced p24 antigen production
- Serum viral RNA loads (HIV-1; six A1 stage non-HAART patients, 40 mg/day oral, one month, sole therapy): clear reduction
- Viral load after discontinuation of treatment (HIV-1; three months after termination of treatment): rebound
- gp120 binding to CD4 ([4]; lovastatin-treated PBMC): did not affect
- Co-localization between gp120 and CXCR4 [4, 8]: drastically reduced
- gp120 patch size vs untreated cells [4, 8]: smaller gp120 patches
- HIV-1 replication (p24 antigen production) (R5 (BaL) HIV-1 strain; PBMC pretreated 48 h with 10 μM lovastatin, R5 (BaL)-infected cultures, FIG. 5A): reduced p24 antigen production
- Virus rescue by co-culture of peritoneal cells with PHA-activated human PBMC (HIV-1 NL4-3; cells from two mice with undetectable viral RNA): did not rescue virus
- Mice with undetectable viral RNA in plasma (HIV-1 NL4-3; lovastatin i.p. 5 mg/kg every three days): 4 of 10
- Mean viral load (plasma HIV-1 RNA) (HIV-1 NL4-3; lovastatin i.p. 5 mg/kg every three days, one week post-infection, vs vehicle, FIG. 5C): significantly reduced
- CD4+ T cell counts vs controls (HIV-1 NL4-3; one week post-infection): higher

Compound: MGCGCSSHPEDDISYEL [SEQ. ID. NO: 21]
- Production of Luc-Ada viral particles (Luc-Ada viral particles): severely diminished
- Gag processing (Gag): severely attenuated

Reference: patent publication US20070082942A1, “Prevention of hiv-1 infection by inhibition of rho-mediated reorganization and/or content alteration of cell membrane raft” (priority 2003, published 2007)
